The values that follow come from patent US12221432B2, “Estrogen receptor antagonist” (CHIA TAI TIANQING PHARMACEUTICAL GROUP CO., LTD., priority 2018, dated 2025).

Data set [1] can be described thus: Pharmacokinetics study in mice (cassette). In kind it is in vivo. As to conditions: female, Balb/c, plasma, mouse cassette PK. The text has this:
Objective: To determine the drug concentration in the plasma of the mice at different times after intravenous and oral administration of the test compounds by LC/MS/MS using female Balb/c mice as the test animals. To investigate the pharmacokinetic performance of the test compounds in mice and to evaluate the pharmacokinetic characteristics.
Test animals: 4 healthy female Balb/c mice were divided into 2 groups according to the principle of similar weight, 2 in the IV group and 2 in the PO group. The animals were purchased from Shanghai Lingchang Biotechnology Co., Ltd.
(§1) IV group: Appropriate amounts of compounds were weighed respectively, prepared into 2 mg/mL solutions, then mixed to give a 0.5 mg/mL solution, which was stirred and ultrasonicated until a clear state. The vehicle was 15% HP-b-CD.
(§2) PO group: An appropriate amount of the IV group solution was taken and diluted to 0.4 mg/mL with 15% HP-b-CD.
(§3) Administration: After fasting overnight, the IV group was administered intravenously, and the dose of the test compound was 1 mg/kg; the PO group was administered intragastrically, and the dose of the test compound was 2 mg/kg.
(§4) Procedures: For IV group, 30 μL of blood was collected from the saphenous vein of the female Balb/c mice at 0.0833, 0.25, 0.5, 1, 2, 4, 8, and 24 hours post-dose, and placed in a commercial anticoagulant tube with EDTA-K2 added in advance. For PO group, 30 μL of blood was collected from the saphenous vein of the female Balb/c mice at 0.25, 0.5, 1, 2, 4, 8, 12 and 24 hours post-dose, and placed in a commercial anticoagulant tube with EDTA-K2 added in advance. The blood samples were centrifuged (3,200 g, 4° C., 10 minutes) to give plasma samples, which was transferred to a pre-cooled centrifuge tube, frozen in dry ice, and stored in an ultra-low temperature freezer at −60° C. or lower until the LC-MS/MS analysis. The animals were given free access to food 4 hours after the administration. LC/MS/MS method was used to determine the content of the test compounds in the plasma of mice after intravenous and oral administration. The linear range of the method is 2.00-2000 nM.

Data set [2] can be described thus: Pharmacokinetics study in rats (cassette). Type of data set: in vivo. The conditions noted are these: female, SD, plasma, rat cassette PK.
Excerpt: Experimental objective: To determine the drug concentration in the plasma of the rats at different times after intravenous and oral administration of the test compounds by LC/MS/MS using female SD rats as the test animals. To investigate the pharmacokinetic performance of the test compounds in rats and to evaluate the pharmacokinetic characteristics.
Test animals: 4 healthy female SD rats were divided into 2 groups according to according to the principle of similar weight, 2 in the IV group and 2 in the PO group. Animal used in this study were purchased from Beijing Vital River Laboratory Animal Technology Co., Ltd.
as §1, §2, §3
as §4, with “200” for “30”, “jugular” for “saphenous”, “SD rats” for “Balb/c mice”

The mark [3] stands for this setting: iv, i.v. 1 mg/kg, read-out: Vdss.

Structures can show the parent of a compound that is named as a salt.

In the case of `CC/C(=C(/c1ccc(OCCNC/C=C/C(=O)N(C)C)nc1)c1[nH]c2ccccc2c1Cl)c1ccccc1` [Compound 3 monohydrochloride], in data set [1] (iv, i.v. 1 mg/kg), the AUC(0-t) was determined as 2.43 µM·h, the clearance was found to be 12.9 mL/min/kg and the half-life was 202 min. For the same compound, the Vd in data set [1] (setting [3]) worked out at 3.46 L/kg. In addition, in data set [1] (po, p.o. 2 mg/kg), the exposure AUC(0-t) amounted to 1.27 µM·h, the Cmax amounted to 224 nM, the Tmax worked out at 15 min and the bioavailability amounted to 26.1%. Moreover, the half-life in data set [1] (po, p.o. 2 mg/kg) was 487 min. In data set [2] (iv, i.v. 1 mg/kg), this compound had an AUC(0-t) of 3.55 µM·h, a clearance of 8.14 mL/min/kg and a half-life of 399 min. Besides, the Vd in data set [2] (setting [3]) is 4.46 L/kg. Further, in data set [2] (po, p.o. 2 mg/kg), the AUC(0-t) was 5.21 µM·h, the Cmax was determined as 464 nM, the Tmax was 2 h and the bioavailability was 73.3%.
